Measured values as given in article PMC8228537, “Acrylonitrile Derivatives against Trypanosoma cruzi: In Vitro Activity and Programmed Cell Death Study” (Pharmaceuticals, 2021).
“Also recorded” adds a separate entry of the source.

Tests used:
Trypanosoma cruzi = experiment: Programmed cell death study (overall conclusion from the PCD assays); assay type: cell-based; conditions: overall conclusion from ROS, mitochondrial potential, ATP and chromatin condensation assays
Description: Different assays were performed to elucidate which pathways could be triggered by these acrylonitriles. The most probable cellular process induced by our compounds is the apoptosis or programmed cell death (PCD), in which the inflammatory response is weakly activated, in contrast to a necrotic event, where the inflammatory response is strong.

[1] = system: epimastigote stage of T. cruzi; experiment: Antiparasitic activity, alamarBlue, epimastigotes; assay type: cell-based, Trypanosoma cruzi; conditions: for IC50: 72 h, epimastigote stage of T. cruzi (Y strain), alamarBlue, mean ± SD, NA: not active; for Selectivity index (SI): ratio of CC50 for J774A.1 and IC50 for epimastigotes of T. cruzi
Description: Epimastigotes of Trypanosoma cruzi (Y strain) were used in this study and cultured in liver infusion tryptose (LIT) medium supplemented with 10% of foetal bovine serum (FBS) at 26 °C.
In a sterile 96-well plate, a serial dilution of acrylonitriles was carried out in LIT medium supplemented with 10% FBS with a final volume of 100 µL. Parasites were added to wells to reach a concentration of 10^5 parasites per well. Finally, a 10% of alamarBlue Cell Viability Reagent® (ThermoFisher Scientific, Waltham, MA, USA) was added into each well, and the plate was incubated for 72 h at 26°C.

[2] = Cytotoxicity, alamarBlue, murine macrophages; assay type: cell-based; conditions: mouse, J774A.1 murine macrophage cell line, J774A.1 murine macrophages, mean ± SD
Description: The cytotoxicity was evaluated against murine macrophages (J774A.1) using the same method mentioned in the antiparasitic assay, based on the alamarBlue Cell Viability Reagent®. In a sterile 96-well plate, 10^4 cells per well were added, then, after the complete adhesion, serial dilutions of the 32 compounds, using a deep well plate, and a 10% of alamarBlue® were joined.

[3] = system: epimastigotes of Trypanosoma cruzi; experiment: Reactive oxygen species analysis (CellROX Deep Red); assay type: cell-based; conditions: 24 h with the IC90, Figure 5
Description: The CellROX® reagent emits red fluorescence in the presence of reactive oxygen species.
The oxidative stress was measured with the CellROX® Deep Red Reagent (ThermoFisher Scientific, MA, USA). […] Finally, the fluorescence was analyzed using the EVOS® FL Cell Imaging System (ThermoFisher Scientific, MA, USA) with the Cy5 light cube.

[4] = system: epimastigotes of Trypanosoma cruzi; experiment: Plasmatic membrane permeability analysis (SYTOX Green); assay type: cell-based; conditions: 24 h with the IC90, Figure 4
Description: The use of the dye SYTOX® Green reagent means that when the plasmatic permeability is altered, it is possible for the reagent to go inside the cells, joining the parasitic DNA and emitting an intense green fluorescence.
To determine the plasmatic membrane permeability, SYTOX® Green nucleic acid stain fluorescent dye (ThermoFisher Scientific, MA, USA) was used. […] The pellet was resuspended in a 50 µL staining buffer and the Sytox® Green at 1 µM (final concentration). After 15 min of incubation at room temperature, parasites were analyzed. Fluorescence pictures were taken with the EVOS® FL Cell Imaging System (ThermoFisher Scientific, MA, USA).

[5] = system: epimastigotes of Trypanosoma cruzi; experiment: Chromatin condensation analysis (Hoechst 33342/propidium iodide); assay type: cell-based; conditions: 24 h with the IC90, Figure 1
Description: Vybrant® Apoptosis Assay Kit n°5, Hoechst 33342/Propidium Iodide (ThermoFisher Scientific, MA, USA) was used to determinate the chromatin condensation of the treated parasites. […] Thereafter, Hoechst (5 µg/mL) and propidium iodide (PI) (1 µg/mL) were added and incubated for 20 min at 26 °C. The EVOS® FL Cell Imaging System (ThermoFisher Scientific, MA, USA) was used to capture the fluorescence images, using the DAPI (Hoechst) and RFP (PI) light cubes.

[6] = system: epimastigotes of Trypanosoma cruzi; experiment: ATP level analysis (CellTiter-Glo); assay type: cell-based; conditions: 24 h with the IC90, CellTiter-Glo, Figure 3
Description: Variations in the level of ATP were measured with the CellTiter-Glo® Luminescent Cell Viability Assay (Promega, WI, USA). […] Then, in a white 96-well plate, the epimastigotes were resuspended in 25µL of culture media and mixed with 25 µL of the kit. After 10 min of incubation at room temperature, the luminescence was measured using an EnSpire Multimode Plate Reader® (PerkinElmer). The results were expressed in percentage of production of ATP level relative to the negative control (without any treatment).

| Compound | Induction of programmed cell death (apoptosis-like process) (Trypanosoma cruzi) | IC50 ([1]; Trypanosoma cruzi) | CC50 at 24 h [2] | Reactive oxygen species (CellROX Deep Red fluorescence) [3] | Selectivity index (SI) [1] | Plasma membrane permeability (SYTOX Green fluorescence) [4] | Chromatin condensation (Hoechst 33342 blue fluorescence) [5] | Dead cells (propidium iodide red fluorescence) [5] | Percentage of ATP level relative to untreated control [6] | IC50 [1] |
| --- | --- | --- | --- | --- | --- | --- | --- | --- | --- | --- |
| COC(=O)/C=C/C#N [Compound Q1, (E)-Methyl 3-cyanoacrylate] | did not show evidence of causing a programmed cell death mechanism | 17.4 ± 4.75 µM | 87.4 ± 7.02 µM |  |  |  |  |  |  |  |
| COC(=O)/C=C\C#N [Compound Q2, (Z)-Methyl 3-cyanoacrylate] | did not show evidence of causing a programmed cell death mechanism | 25.9 ± 2.78 µM | 112 ± 15.8 µM |  |  |  |  |  |  |  |
| CCOC(=O)/C=C/C#N [Compound Q3, (E)-Ethyl 3-cyanoacrylate] | did not show evidence of causing a programmed cell death mechanism | 46.4 ± 5.73 µM | 86.7 ± 22.8 µM | most intense red fluorescence |  |  |  |  |  |  |
| CCOC(=O)/C=C\C#N [Compound Q4, (Z)-Ethyl 3-cyanoacrylate] |  | 47.3 ± 10.6 µM | 43.2 ± 9.83 µM |  | 0.91 |  |  |  |  |  |
| CCCCCCCCOC(=O)/C=C/C#N [Compound Q5, (E)-Octyl 3-cyanoacrylate] | robust evidence of inducing all the physiological features of an apoptosis-like process | 34.3 ± 1.67 µM | 53.9 ± 12.8 µM | less intense fluorescence |  | more remarkable | intense blue fluorescence in the nucleus, indicating chromatin condensation | red fluorescence, indicating already dead cells |  |  |
| CCCCCCCCOC(=O)/C=C\C#N [Compound Q6, (Z)-Octyl 3-cyanoacrylate] |  | 51.9 ± 7.69 µM | 28.8 ± 2.53 µM |  | 0.55 |  |  |  |  |  |
| N#C/C=C/C(=O)Oc1ccccc1 [Compound Q7, (E)-phenyl 3-cyanoacrylate] | robust evidence of inducing all the physiological features of an apoptosis-like process; also recorded: shown to induce an apoptosis-like cell death | 15.5 ± 1.27 µM | 46.5 ± 3.81 µM | less intense fluorescence |  | more remarkable | intense blue fluorescence in the nucleus, indicating chromatin condensation | red fluorescence, indicating already dead cells | 32.68% |  |
| N#C/C=C\C(=O)Oc1ccccc1 [Compound Q8, (Z)-phenyl 3-cyanoacrylate] | shown to induce an apoptosis-like cell death | 4.36 ± 0.26 µM | 52.9 ± 4.51 µM | less intense fluorescence |  |  |  |  |  |  |
| CCCCCC(=O)/C=C/C#N [Compound Q10, (E)-4-Oxonon-2-enenitrile] |  | 11 ± 1.38 µM | 10.1 ± 1.46 µM |  | 0.92 |  |  |  |  |  |
| N#C/C=C/C(=O)c1ccccc1 [Compound Q11, (E)-4-Oxo-4-phenylbut-2-enenitrile] |  | 5.53 ± 1.36 µM | 5.22 ± 1.02 µM |  | 0.94 |  |  |  |  |  |
| N#C/C=C\C(=O)c1ccccc1 [Compound Q12, (Z)-4-Oxo-4-phenylbut-2-enenitrile] |  | 20.9 ± 4.61 µM | 7.64 ± 1.21 µM |  | 0.36 |  |  |  |  |  |
| N#C/C=C/C(=O)c1cccs1 [Compound Q13, (E)-4-Oxo-4-(thiophen-2-yl)but-2-enenitrile] |  | 25 ± 0.62 µM | 8.52 ± 0.04 µM |  | 0.34 |  |  |  |  |  |
| N#C/C=C\C(=O)c1cccs1 [Compound Q14, (Z)-4-Oxo-4-(thiophen-2-yl)but-2-enenitrile] |  | 26.5 ± 2.83 µM | 8.39 ± 0.25 µM |  |  |  |  |  |  |  |
| N#C/C=C/C(=O)c1ccco1 [Compound Q15, (E)-4-(Furan-2-yl)-4-oxobut-2-enenitrile] |  | 32.9 ± 0.83 µM | 6.66 ± 1.77 µM |  | 0.20 |  |  |  |  |  |
| N#C/C=C/C(=O)C1CCCCC1 [Compound Q16, (E)-4-Cyclohexyl-4-oxobut-2-enenitrile] |  | 7.65 ± 1.51 µM | 4.35 ± 0.25 µM |  | 0.57 |  |  |  |  |  |
| N#C/C=C/C(=O)CCc1ccccc1 [Compound Q17, (E)-4-Oxo-6-phenylhex-2-enenitrile] |  | 14.1 ± 2.53 µM | 5.24 ± 0.7 µM |  | 0.37 |  |  |  |  |  |
| CCOP(=O)(/C=C/C#N)OCC [Compound Q18, (E)-Diethyl 2-cyanovinylphosphonate] |  |  |  | less intense fluorescence |  |  |  | red fluorescence, indicating already dead cells |  | 14.8 ± 3.06 µM |
| N#C/C=C/P(=O)(c1ccccc1)c1ccccc1 [Compound Q19, (E)-3-(diphenylphosphoryl)acrylonitrile] | robust evidence of inducing all the physiological features of an apoptosis-like process | 14.6 ± 3.44 µM | 22.2 ± 3.24 µM |  |  | more remarkable | intense blue fluorescence in the nucleus, indicating chromatin condensation | red fluorescence, indicating already dead cells | 30.78% |  |
| N#C/C=C\P(=O)(c1ccccc1)c1ccccc1 [Compound Q20, (Z)-3-(diphenylphosphoryl)acrylonitrile] |  | 49.1 ± 1.12 µM | 50.6 ± 10.8 µM |  | 1.03 |  |  |  |  |  |
| Cc1ccc(S(=O)(=O)/C=C/C#N)cc1 [Compound Q21, (E)-3-Tosylacrylonitrile] |  | 3.86 ± 0.67 µM |  |  | 0.83 |  |  |  |  |  |
| N#C/C=C/C(=O)N1CCCC1 [Compound Q25, (E)-4-Oxo-4-(pyrrolidin-1-yl)but-2-enenitrile] | did not show evidence of causing a programmed cell death mechanism | 154 ± 19.8 µM | 374 ± 47.9 µM |  |  |  |  |  |  |  |
| CON(C)C(=O)/C=C\C#N [Compound Q28, (Z)-3-Cyano-N-methoxy-N-methylacrylamide] |  |  | 210 ± 8.99 µM |  |  |  |  |  |  |  |
